Biological target: T1, LOX (Mus musculus, UniProt P28301)
T1 construct: Full length LOX cDNA was then PCR cloned into pEGFP-N1 (Clonetech), or biosensor vector proGFP2-N1; expressed in transfected cells; host or cells: MDCK cells grown as cysts on Matrigel, G418-selected
T1 sequence (P28301 163-411): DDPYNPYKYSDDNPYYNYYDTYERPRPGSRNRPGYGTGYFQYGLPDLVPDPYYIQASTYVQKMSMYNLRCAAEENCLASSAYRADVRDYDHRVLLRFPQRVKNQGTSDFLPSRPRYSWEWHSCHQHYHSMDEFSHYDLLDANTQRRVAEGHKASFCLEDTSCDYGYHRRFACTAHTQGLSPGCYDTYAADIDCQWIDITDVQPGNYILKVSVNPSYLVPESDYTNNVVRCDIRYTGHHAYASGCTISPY
Assay: LOX activity in cysts assay (LOX-roGFP2 biosensor, MDCK cysts)
Format: cell-based
Details: for inhibition at 10 µM / inhibition at 2.5 µM / IC50: MDCK cysts; for inhibition at 10 µM: inhibitor added 30 min prior to imaging, read-out: LOX biosensor inhibition (cyst) @ 10 uM; for inhibition at 10 µM / inhibition at 2.5 µM: DMSO = 0%, BAPN 1 mM = 100% inhibition; for inhibition at 2.5 µM: 2.5 uM (stated in cell), read-out: LOX biosensor inhibition (cyst) @ 2.5 uM; for IC50: roGFP2 ratio at basal surface, read-out: LOX biosensor IC50 (cyst)
Protocol: LOX Activity in Cysts Assay (Tang et al, 2017).
All cell lines used in this study were purchased from American Type Culture Collection (ATCC). Mycoplasma contamination was routinely monitored by PCR. Cells used were not found to be Mycoplasma positive. MDCK cell lines were cultured in Dulbecco's Modified Eagle Medium (DMEM) supplemented with 10% fetal bovine serum (FBS) and 1% Penicillin Streptomycin solution (Pen Strep). For GFP constructs transfection in MDCK cells, lipofectamine 3000 was used according to manufactures protocols. Cells were either selected with G418 (Life Technologies) at 5 mg/ml. All cell culture reagents were purchased from Life Technologies.
To produce MDCK cysts, cells were cultured on Matrigel (Corning) with 2% Matrigel supplemented in DMEM with 10% FBS. Cysts were allowed to form for 10 days before subsequent studies.
Mouse LOX cDNA was purchased from OriGene. Full length LOX cDNA was then PCR cloned into pEGFP-N1 (Clonetech), or biosensor vector proGFP2-N1 (Hanson, 2004) using the following primers, […] (forward primer) and […] (reverse primer). For the insertion into pEGFP-N1 or proGFP2-N1, NheI and XhoI restriction sites were added to forward and reverse primers accordingly. Mutant LOX constructs were made using QuickChange II site-directed mutagenesis kit (Agilent Technologies) following manufacture's protocol using LOX-GFP as template. To generate, roGFP2 versions of LOX mutant constructs, LOX mutant cDNA was transferred from pEGFP-N1 to proGFP2-N1 using NheI and XhoI.
All photomicrographs were taken with a Leica TCS SP8 X confocal system. For LOX biosensor imaging, live MDCK cysts were used. The oxidised biosensor was excited using a 405 nm laser, while the reduced biosensor was excited with a 488 nm laser. Emission of the biosensor was recorded at 500 nm˜530 nm range using sequential scans. Ratio images were generated following a published protocol {Kardash, 2011 #376}. Note, while the published protocol generates YFP/CFP ratio images, we used it to generate Oxidised/Reduced (roGFP2 ratio) ratio images. The roGFP2 ratio at the basal surface of MDCK cysts was used to indicate LOX inhibition. LOX inhibitors were added 30 min prior to imaging.
For clarity, readout for DMSO treated cysts represents 0% inhibition (no inhibition) and readout for BAPN at 1 mM is used as 100% inhibition (full inhibition).

Row | Structure (SMILES) | inhibition at 10 µM | other results
1 | CCOc1ccc(N2C[C@H]3CN(C(=O)NNCCO)C[C@@H]2C(C)(C)C3)cc1 (stereo in doubt) [Example 29, 6-(4-ethoxyphenyl)-N′-(2-hydroxyethyl)-9,9-dimethyl-3,6-diazabicyclo[3.2.2]nonane-3-carbohydrazide] | 100% | –
2 | N#CCCN [BAPN, β-aminopropionitrile, reference compound] | – | LOX inhibition in cysts assay (reference used as full inhibition) (1 mM, readout used as 100% inhibition): 100%
3 | CCOc1ccc(N2C[C@H]3CN(C(=O)Nc4ccc(OC)cc4)C[C@@H]2C(C)(C)C3)cc1 [Example 1, (1S,5S)-6-(4-ethoxyphenyl)-N-(4-methoxyphenyl)-9,9-dimethyl-3,6-diazabicyclo[3.2.2]nonane-3-carboxamide] | 91% | –
4 | CCNC(=O)N1C[C@@H]2CN(c3ccc(F)cc3)[C@H](C1)C(C)(C)C2 [Example 2, (1 S,5S)—N-ethyl-6-(4-fluorophenyl)-9,9-dimethyl-3,6-diazabicyclo[3.2.2]nonane-3-carboxamide] | – | inhibition at 2.5 µM: 92%
5 | CCNC(=O)N1C[C@@H]2CN(c3ccc(OCCOC)cc3)[C@H](C1)C(C)(C)C2 [Example 3, (1S,5S)—N-ethyl-6-(4-(2-methoxyethoxy)phenyl)-9,9-dimethyl-3,6-diazabicyclo[3.2.2]nonane-3-carboxamide] | 88% | –
6 | CC1(C)C[C@@H]2CN(C(=O)NCCO)C[C@H]1N(c1ccc(N3CCS(=O)(=O)CC3)cc1)C2 [Example 5, (1S,5S)-6-(4-(1,1-dioxidothiomorpholino)phenyl)-N-(2-hydroxyethyl)-9,9-dimethyl-3,6-diazabicyclo[3.2.2]nonane-3-carboxamide] | 62% | –
7 | CNC(=O)N1C[C@@H]2CN(c3ccc(N4CCS(=O)(=O)CC4)cc3)[C@H](C1)C(C)(C)C2 [Example 6, (1S,5S)-6-(4-(1,1-dioxidothiomorpholino)phenyl)-N,9,9-trimethyl-3,6-diazabicyclo[3.2.2]nonane-3-carboxamide] | 50% | –
8 | CC1(C)C[C@@H]2CN(c3ccc(N4CCS(=O)(=O)CC4)cc3)[C@H]1CCN2C(=O)N1CCS(=O)(=O)CC1 [Example 9, (1,1-dioxidothiomorpholino)((1R,5S)-6-(4-(1,1-dioxidothiomorpholino)phenyl)-9,9-dimethyl-2,6-diazabicyclo[3.2.2]nonan-2-yl)methanone] | 100% | IC50: 690 nM
9 | CC1(C)C[C@@H]2CN(C(=O)NC3CCS(=O)(=O)CC3)C[C@H]1N(c1ccc(N3CCS(=O)(=O)CC3)cc1)C2 [Example 11, (1S,5S)-N-(1,1-dioxidotetrahydro-2H-thiopyran-4-yl)-6-(4-(1,1-dioxidothiomorpholino)phenyl)-9,9-dimethyl-3,6-diazabicyclo[3.2.2]nonane-3-carboxamide] | 100% | –
10 | CCOc1ccc(N2C[C@H]3CN(C(=O)N(CCO)CCO)C[C@@H]2C(C)(C)C3)cc1 [Example 14, (1S,5S)-6-(4-ethoxyphenyl)-N,N-bis(2-hydroxyethyl)-9,9-dimethyl-3,6-diazabicyclo[3.2.2]nonane-3-carboxamide] | 75% | –
11 | CCOc1ccc(N2C[C@H]3CN(C(=O)N4CC[C@H](O)C4)C[C@@H]2C(C)(C)C3)cc1 [Example 15, ((1S,5S)-6-(4-ethoxyphenyl)-9,9-dimethyl-3,6-diazabicyclo[3.2.2]nonan-3-yl)((S)-3-hydroxypyrrolidin-1-yl)methanone] | 84% | –
12 | CCOc1ccc(N2C[C@H]3CN(C(=O)N(C)CCC#N)C[C@@H]2C(C)(C)C3)cc1 [Example 16, (1S,5S)-N-(2-cyanoethyl)-6-(4-ethoxyphenyl)-N,9,9-trimethyl-3,6-diazabicyclo[3.2.2]nonane-3-carboxamide] | 88% | –
13 | CCOc1ccc(N2C[C@H]3CN(C(=O)N4CCC(C#N)CC4)C[C@@H]2C(C)(C)C3)cc1 [Example 17, 1-((1S,5S)-6-(4-ethoxyphenyl)-9,9-dimethyl-3,6-diazabicyclo[3.2.2]nonane-3-carbonyl)piperidine-4-carbonitrile] | – | inhibition at 2.5 µM: 77%
14 | CCOc1ccc(N2C[C@H]3CN(C(=O)N4CCC(N5CCCC5)CC4)C[C@@H]2C(C)(C)C3)cc1 [Example 18, ((1S,5S)-6-(4-ethoxyphenyl)-9,9-dimethyl-3,6-diazabicyclo[3.2.2]nonan-3-yl)(4-(pyrrolidin-1-yl)piperidin-1-yl)methanone] | 84% | –
15 | CCOc1ccc(N2C[C@H]3CN(C(=O)NC[C@@H](O)CO)C[C@@H]2C(C)(C)C3)cc1 [Example 19, (1S,5S)-N-((R)-2,3-dihydroxypropyl)-6-(4-ethoxyphenyl)-9,9-dimethyl-3,6-diazabicyclo[3.2.2]nonane-3-carboxamide] | 100% | –
16 | CCOc1ccc(N2C[C@@H]3CC(C)(C)[C@H]2CCN3C(=O)NCCO)cc1 [Example 20, (1S,5R)-6-(4-ethoxyphenyl)-N-(2-hydroxyethyl)-9,9-dimethyl-2,6-diazabicyclo[3.2.2]nonane-2-carboxamide] | 79% | –
17 | CCOc1ccc(N2C[C@@H]3CN(C(=O)NCCO)C[C@H]2C(C)(C)C3)cc1 [Example 21, (1R,5R)-6-(4-ethoxyphenyl)-N-(2-hydroxyethyl)-9,9-dimethyl-3,6-diazabicyclo[3.2.2]nonane-3-carboxamide] | 94% | –
18 | CCOc1ccc(N2C[C@H]3CC(C)(C)[C@@H]2CCN3C(=O)NCCO)cc1 [Example 22, (1R,5S)-6-(4-ethoxyphenyl)-N-(2-hydroxyethyl)-9,9-dimethyl-2,6-diazabicyclo[3.2.2]nonane-2-carboxamide] | 100% | –
19 | CCOc1ccc(N2C[C@@H]3CC4(CCCCC4)[C@H]2CCN3C(=O)NCCO)cc1 [Example 23, (1S,5R)-6-(4-ethoxyphenyl)-N-(2-hydroxyethyl)-2,6-diazaspiro[bicyclo[3.2.2]nonane-9,1′-cyclohexane]-2-carboxamide] | 100% | IC50: 370 nM
20 | CCOc1cccc(N2C[C@H]3CN(C(=O)NCCO)C[C@@H]2C(C)(C)C3)c1 [Example 24, (1S,5S)-6-(3-ethoxyphenyl)-N-(2-hydroxyethyl)-9,9-dimethyl-3,6-diazabicyclo[3.2.2]nonane-3-carboxamide] | 100% | IC50: < 630 nM
21 | CCOc1ccc(N2C[C@H]3CN(C(=O)Nc4cc(C)n[nH]4)C[C@@H]2C(C)(C)C3)cc1 [Example 25, (1S,5S)-6-(4-ethoxyphenyl)-9,9-dimethyl-N-(3-methyl-1H-pyrazol-5-yl)-3,6-diazabicyclo[3.2.2]nonane-3-carboxamide] | 73% | –
22 | CC1(C)C[C@@H]2CN(C(=O)NCCO)C[C@H]1N(c1ccc(Oc3ccccn3)cc1)C2 [Example 28, (1S,5S)-N-(2-hydroxyethyl)-9,9-dimethyl-6-(4-(pyridin-2-yloxy)phenyl)-3,6-diazabicyclo[3.2.2]nonane-3-carboxamide] | 100% | –
23 | CC1(C)C[C@@H]2CN(C(=O)NCCO)C[C@H]1N(c1ccc(N3CCC(F)(F)CC3)cc1)C2 [Example 30, (1S,5S)-6-(4-(4,4-difluoropiperidin-1-yl)phenyl)-N-(2-hydroxyethyl)-9,9-dimethyl-3,6-diazabicyclo[3.2.2]nonane-3-carboxamide] | 100% | IC50: 330 nM

Source: patent US12060360B2, “Lysyl oxidase inhibitors” (The Institute of Cancer Research: Royal Cancer Hospital, priority 2017, dated 2024)
